Measured values as given in patent US20260015350A1, “AZAQUINAZOLINE PAN-KRAS INHIBITORS” (Mirati Therapeutics, Inc., priority 2022, published 2026).
One block for each compound: values may come before it.

What was measured:
KRas^G12D = biological target: T1, KRas^G12D (Homo sapiens, UniProt P01116, G12D); assay: KRas binding assay (TR-FRET tracer displacement), KRas G12D
T1 construct: Biotinylated KRas (corresponding to amino acids 1-169, produced at Accelegan Inc.); biotin (biotinylated); purchased Accelegan Inc
T1 sequence (P01116 1-169 isoform P01116-2 G12D): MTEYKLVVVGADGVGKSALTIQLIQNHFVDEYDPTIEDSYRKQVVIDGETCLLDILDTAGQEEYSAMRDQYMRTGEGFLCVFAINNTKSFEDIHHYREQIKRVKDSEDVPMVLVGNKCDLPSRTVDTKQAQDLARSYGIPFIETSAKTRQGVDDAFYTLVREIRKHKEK

KRas^G12R = biological target: T2, KRas^G12R (Homo sapiens, UniProt P01116, G12R); assay: KRas binding assay (TR-FRET tracer displacement), KRas G12R
T2 construct: Biotinylated KRas (corresponding to amino acids 1-169, produced at Accelegan Inc.); biotin (biotinylated); purchased Accelegan Inc
T2 sequence (P01116 1-169 isoform P01116-2 G12R): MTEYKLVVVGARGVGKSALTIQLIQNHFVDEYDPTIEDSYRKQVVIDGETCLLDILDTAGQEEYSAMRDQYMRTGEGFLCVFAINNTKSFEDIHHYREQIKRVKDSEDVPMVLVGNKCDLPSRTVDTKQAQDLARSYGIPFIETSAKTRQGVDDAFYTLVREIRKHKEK

KRas^G12V = biological target: T3, KRas^G12V (Homo sapiens, UniProt P01116, G12V); assay: KRas binding assay (TR-FRET tracer displacement), KRas G12V
T3 construct: Biotinylated KRas (corresponding to amino acids 1-169, produced at Accelegan Inc.); biotin (biotinylated); purchased Accelegan Inc
T3 sequence (P01116 1-169 isoform P01116-2 G12V): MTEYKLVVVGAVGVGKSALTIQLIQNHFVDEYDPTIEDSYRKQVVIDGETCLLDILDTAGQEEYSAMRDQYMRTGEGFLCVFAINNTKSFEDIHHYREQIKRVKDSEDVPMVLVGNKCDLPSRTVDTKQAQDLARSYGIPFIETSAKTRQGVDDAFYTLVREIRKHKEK

[1] = tested on: KRas-mediated phosphorylation of ERK in MKN1 cells; assay: Inhibition of KRas-mediated phosphorylation of ERK (Cisbio HTRF pERK), MKN1 cells; type: cell-based; conditions: Homo sapiens, MKN-1
Procedure: (§1) Inhibition of KRas Phosphorylation of ERK (HTRF) by Exemplary Compounds of Formula (I)
(§2) Cisbio HTRF Advanced PERK Assay Catalog #64AERPEH
(§3) Day 1: Seed 6,000 cells/well-25 μl/well in 384-well white solid bottom plate; RPM1_10% FBS. Incubate overnight at 37° C./5% CO2.
(§4) Incubate for 4 hours at room temperature covered.
(§5) Read HTRF using ClarioStar

[2] = tested on: KRas-mediated phosphorylation of ERK in PSN1 cells; assay: Inhibition of KRas-mediated phosphorylation of ERK (Cisbio HTRF pERK), PSN1 cells; type: cell-based; conditions: Homo sapiens
Procedure: as §1, §2, §3, §4, §5

[3] = tested on: KRas-mediated phosphorylation of ERK in AsPC-1 cells; assay: Inhibition of KRas-mediated phosphorylation of ERK (Cisbio HTRF pERK), AsPC-1 cells; type: cell-based; conditions: for IC50: HTRF pERK
Outline: (§6)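 Following a 3-hr exposure of cells to serially diluted compound (from 10 uM, 3-fold, 10 doses), cold lysis for 40 mins preceded a 2-hr room-temperature HTRF immunoassay for phosphorylated ERK.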

[4] = tested on: KRas-mediated phosphorylation of ERK in H727 cells; assay: Inhibition of KRas-mediated phosphorylation of ERK (Cisbio HTRF pERK), H727 cells; type: cell-based; conditions: for IC50: HTRF pERK
Outline: as §6

[5] = tested on: KRas-mediated phosphorylation of ERK in A549 cells; assay: Inhibition of KRas-mediated phosphorylation of ERK (Cisbio HTRF pERK), A549 cells; type: cell-based; conditions: single point, 100 nM compound, 3 hrs
Outline: (§7)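 6,000 cells/well; cpd 10 uM top, 3-fold x10, 0.8% DMSO final; 3 hr incubation; Min ctrl Trametinib 0.2 uM; lysis 40 min 4° C shaking; d2 + Cryptate Ab mix, 2 hr RT; HTRF read.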

[6] = tested on: KRas-mediated phosphorylation of ERK in H460 cells; assay: Inhibition of KRas-mediated phosphorylation of ERK (Cisbio HTRF pERK), H460 cells; type: cell-based; conditions: single point, 100 nM compound, 3 hrs
Outline: as §6

[7] = tested on: KRas-mediated phosphorylation of ERK in HCT116 cells; assay: Inhibition of KRas-mediated phosphorylation of ERK (Cisbio HTRF pERK), HCT116 cells; type: cell-based; conditions: single point, 100 nM compound, 3 hrs
Outline: as §7

[8] = tested on: KRas-mediated phosphorylation of ERK in H358 cells; assay: Inhibition of KRas-mediated phosphorylation of ERK (Cisbio HTRF pERK), H358 cells; type: cell-based; conditions: single point, 100 nM compound, 3 hrs
Outline: as §6

[9] = Homo sapiens, ASPC1, AsPC-1 cells
[10] = Homo sapiens, NCI-H727, H727 cells

SMILES: CCc1c(F)ccc2cc(O)cc(-c3ncc4c(N5CCC(S(C)(=N)=O)C5)nc(OC[C@@]56CCCN5C[C@H](F)C6)nc4c3F)c12 (stereo partly drawn) [Example 580, 5-ethyl-6-fluoro-4-(8-fluoro-2-(((2R,7aS)-2-fluorohexahydro-1H-pyrrolizin-7a-yl)methoxy) 4-(3-(S-methylsulfonimidoyl)pyrrolidin-1-yl)pyrido[4,3-d]pyrimidin-7-yl)naphthalen-2-ol]
IC50 (KRas^G12D): 296 nM
IC50 (KRas^G12R): 30 nM
IC50 (KRas^G12V): 81 nM
IC50 [1]: 476 nM
IC50 [2]: > 10000 nM
IC50 [3, 9]: > 10000 nM
IC50 [4, 10]: > 10000 nM

SMILES: CCc1c(F)ccc2cc(O)cc(-c3ncc4c(NS(=O)(=O)C[C@H]5CNCCO5)nc(OC[C@@]56CCCN5C[C@H](F)C6)nc4c3F)c12 [Example 637, N-(7-(8-ethyl-7-fluoro-3-hydroxynaphthalen-1-yl)-8-fluoro-2-(((2R,7aS)-2-fluorotetrahydro-1H-pyrrolizin-7a(5H)-yl)methoxy)pyrido[4,3-d]pyrimidin-4-yl)-1-((R)-morpholin-2-yl)methanesulfonamide]
IC50 (KRas^G12D): 1220 nM
IC50 (KRas^G12R): 2250 nM
IC50 (KRas^G12V): 3790 nM
IC50 [1]: > 10000 nM
IC50 [2]: > 10000 nM
IC50 [3, 9]: > 10000 nM
IC50 [4, 10]: > 10000 nM

SMILES: CCc1c(F)ccc2cc(O)cc(-c3ncc4c(N5C[C@@H]6OCCN[C@@H]6C5)nc(OC[C@@]56CCCN5C[C@H](F)C6)nc4c3F)c12 [Example 555, 5-ethyl-6-fluoro-4-(8-fluoro-2-(((2R,7aS)-2-fluorotetrahydro-1H-pyrrolizin-7a(5H)-yl)methoxy)-4-(hexahydropyrrolo[3,4-b][1,4]oxazin-6 (2H)-yl)pyrido[4,3-d]pyrimidin-7-yl)naphthalen-2-ol]
IC50 (KRas^G12D): 2030 nM
IC50 (KRas^G12R): 2030 nM
IC50 (KRas^G12V): 512 nM
IC50 [1]: 4020 nM
IC50 [2]: > 10000 nM
IC50 [3, 9]: > 10000 nM
IC50 [4, 10]: > 10000 nM

SMILES: CCc1c(F)ccc2cc(O)cc(-c3ncc4c(NCC5CC(CO)NC5=O)nc(OC[C@@]56CCCN5C[C@H](F)C6)nc4c3F)c12 (stereo partly drawn) [Example 575, 3-(((7-(8-ethyl-7-fluoro-3-hydroxynaphthalen-1-yl)-8-fluoro-2-(((2R,7aS)-2-fluorotetrahydro-1H-pyrrolizin-7a(5H)-yl)methoxy)pyrido[4,3-d]pyrimidin-4-yl)amino)methyl)-5-(hydroxymethyl)pyrrolidin-2-one]
IC50 (KRas^G12D): 25 nM
IC50 (KRas^G12R): 27 nM
IC50 (KRas^G12V): 7 nM
IC50 [1]: 417 nM
IC50 [2]: > 10000 nM
IC50 [3, 9]: > 10000 nM
IC50 [4, 10]: > 10000 nM

SMILES: CCc1c(F)ccc2cc(O)cc(-c3ncc4c(N5CCC[C@]6(CC[S@+]([O-])C6)C5)nc(OC[C@@]56CCCN5C[C@H](F)C6)nc4c3F)c12 (single isomer, unassigned) [Example 625]
IC50 (KRas^G12D): 21 nM
IC50 (KRas^G12R): 17 nM
IC50 (KRas^G12V): 10 nM
IC50 [1]: 195 nM
IC50 [2]: > 10000 nM
IC50 [3, 9]: 4740 nM
IC50 [4, 10]: 2850 nM

SMILES: CCc1c(F)ccc2cc(O)cc(-c3ncc4c(N5CCC(N6C(=O)CCC6=O)C5)nc(OC[C@@]56CCCN5C[C@H](F)C6)nc4c3F)c12 (stereo partly drawn) [Example 615, 1′-(7-(8-ethyl-7-fluoro-3-hydroxynaphthalen-1-yl)-8-fluoro-2-(((2R,7aS)-2-fluorotetrahydro-1H-pyrrolizin-7a(5H)-yl)methoxy)pyrido[4,3-d]pyrimidin-4-yl)-[1,3′-bipyrrolidine]-2,5-dione]
IC50 (KRas^G12D): 1990 nM
IC50 (KRas^G12R): 421 nM
IC50 (KRas^G12V): 222 nM
IC50 [1]: 1530 nM
IC50 [2]: > 10000 nM
IC50 [3, 9]: 7210 nM
IC50 [4, 10]: > 10000 nM

SMILES: CCc1c(F)ccc2cc(O)cc(-c3ncc4c(N5CCCC6(CCCCO6)C5)nc(OC[C@@]56CCCN5C[C@H](F)C6)nc4c3F)c12 (stereo partly drawn) [Example 594, 5-ethyl-6-fluoro-4-(8-fluoro-2-(((2R,7aS)-2-fluorotetrahydro-1H-pyrrolizin-7a(5H)-yl)methoxy)-4-(1-oxa-8-azaspiro[5.5]undecan-8-yl)pyrido[4,3-d]pyrimidin-7-yl)naphthalen-2-ol]
IC50 (KRas^G12D): 91 nM
IC50 (KRas^G12R): 53 nM
IC50 (KRas^G12V): 80 nM
IC50 [1]: 2350 nM
IC50 [2]: > 10000 nM
IC50 [3, 9]: 2810 nM
IC50 [4, 10]: 2290 nM

SMILES: CCc1c(F)ccc2cc(O)cc(-c3ncc4c(N5CC6CCC(C5)C6C#N)nc(OC[C@@]56CCCN5C[C@H](F)C6)nc4c3F)c12 (single isomer, unassigned) [Example 560]
IC50 (KRas^G12D): 262 nM
IC50 (KRas^G12R): 182 nM
IC50 (KRas^G12V): 85 nM
IC50 ([3]; AsPC-1 cells): 3100 nM
Inhibition (HTRF % at 100 nM) of KRas-mediated Phosphorylation of ERK, AsPC-1 ([3]; single point, 100 nM compound, 3 hrs, AsPC-1 cells, 0.1 µM): 5%
IC50 ([4]; H727 cells): 724 nM
Inhibition (HTRF % at 100 nM) of KRas-mediated Phosphorylation of ERK, H727 ([4]; single point, 100 nM compound, 3 hrs, H727 cells, 0.1 µM): 8%
Inhibition (HTRF % at 100 nM) of KRas-mediated Phosphorylation of ERK, A549 ([5]; 0.1 µM): 15%
Inhibition (HTRF % at 100 nM) of KRas-mediated Phosphorylation of ERK, H460 ([6]; 0.1 µM): 10%
Inhibition (HTRF % at 100 nM) of KRas-mediated Phosphorylation of ERK, HCT116 ([7]; 0.1 µM): 12%
Inhibition (HTRF % at 100 nM) of KRas-mediated Phosphorylation of ERK, H358 ([8]; 0.1 µM): 4%

Compounds with a lower IC50 (KRas^G12D), results first:

IC50 (KRas^G12D): 19 nM
IC50 (KRas^G12R): 41 nM
IC50 (KRas^G12V): 17 nM
IC50 [1]: 834 nM
IC50 [2]: > 10000 nM
IC50 [3, 9]: 4030 nM
IC50 [4, 10]: 3990 nM
SMILES: CCc1c(F)ccc2cc(O)cc(-c3ncc4c(N5CCC[C@@]6(CC[S@+]([O-])C6)C5)nc(OC[C@@]56CCCN5C[C@H](F)C6)nc4c3F)c12 (single isomer, unassigned) [Example 624]

IC50 (KRas^G12D): 5 nM
IC50 (KRas^G12R): < 2 nM
IC50 (KRas^G12V): < 2 nM
IC50 [1]: 69 nM
IC50 [2]: > 10000 nM
IC50 [3, 9]: 5110 nM
IC50 [4, 10]: 444 nM
SMILES: CCc1c(F)ccc2cc(O)cc(-c3ncc4c(N5C[C@H]6C[C@@H](C5)[C@H](O)[C@H]6O)nc(OC[C@@]56CCCN5C[C@H](F)C6)nc4c3F)c12 (single isomer, unassigned) [Example 569]

IC50 (KRas^G12D): 8 nM
IC50 (KRas^G12R): 4 nM
IC50 (KRas^G12V): 2 nM
IC50 [1]: 37 nM
IC50 [2]: 5670 nM
IC50 [3, 9]: 149 nM
IC50 [4, 10]: 68 nM
SMILES: CCc1c(F)ccc2cc(O)c(F)c(-c3ncc4c(N5C[C@@H]6C[C@H](C5)[C@H](O)C6)nc(OC[C@@]56CCCN5C[C@H](F)C6)nc4c3F)c12 [Example 811, (1R,5R,6R)-3-(7-(8-ethyl-2,7-difluoro-3-hydroxynaphthalen-1-yl)-8-fluoro-2-(((2R,7aS)-2-fluorotetrahydro-1H-pyrrolizin-7a(5H)-yl)methoxy)pyrido[4,3-d]pyrimidin-4-yl)-3-azabicyclo[3.2.1]octan-6-ol]

IC50 (KRas^G12D): < 2 nM
IC50 (KRas^G12R): 2 nM
IC50 (KRas^G12V): < 2 nM
IC50 [1]: > 10000 nM
IC50 [2]: > 10000 nM
IC50 [3, 9]: 2730 nM
IC50 [4, 10]: 5730 nM
SMILES: CN(C)C(=O)c1cc2n(n1)CCCN(c1nc(OCC34CCCN3CCC4)nc3c(F)c(-c4cc(O)cc(Cl)c4C4CC4)ncc13)C2 [Example 744, 5-(7-(3-chloro-2-cyclopropyl-5-hydroxyphenyl)-8-fluoro-2-((hexahydro-1H-pyrrolizin-7a-yl)methoxy)pyrido[4,3-d]pyrimidin-4-yl)-N,N-dimethyl-5,6,7,8-tetrahydro-4H-pyrazolo[1,5-a][1,4]diazepine-2-carboxamide]

IC50 (KRas^G12D): 4 nM
IC50 (KRas^G12R): 6 nM
IC50 (KRas^G12V): 3 nM
IC50 [3, 9]: 1670 nM
IC50 [4, 10]: 2080 nM
SMILES: CCc1c(F)ccc2cc(O)cc(-c3ncc4c(N5CCC[C@@](C)(O)C5)nc(OC[C@]56CCCN5[C@@H](CNS(=O)(=O)N(C)C)CC6)nc4c3F)c12 [Example 787, (R)-1-(7-(8-ethyl-7-fluoro-3-hydroxynaphthalen-1-yl)-8-fluoro-2-(((3R,7aR)-3-(((dimethylsulfamoyl)amino)methyl)tetrahydro-1H-pyrrolizin-7a(5H)-yl)methoxy)pyrido[4,3-d]pyrimidin-4-yl)-3-methylpiperidin-3-ol]
inhibition at 0.1 µM ([3]; Homo sapiens, ASPC1, 3 h, single point, 100 nM compound, 3 hrs, AsPC-1 cells): 23%
inhibition at 0.1 µM ([4]; Homo sapiens, NCI-H727, 3 h, single point, 100 nM compound, 3 hrs, H727 cells): 33%
inhibition at 0.1 µM ([5]; Homo sapiens, A549, 3 h): 14%
inhibition at 0.1 µM ([6]; Homo sapiens, NCI-H460, 3 h): 11%
inhibition at 0.1 µM ([7]; Homo sapiens, HCT-116, 3 h): 9%
inhibition at 0.1 µM ([8]; Homo sapiens, NCI-H358, 3 h): 8%
